Measured values from paper PMC6857076 (Pharmacology Research & Perspectives, 2019).
Like-named read-outs stand apart in the source and are kept apart here.

System: IL-23 cytokine receptor (JAK2/TYK2)
Assay: Human whole blood, IL-23-induced pSTAT3, lymphocytes
Type: cell-based
Conditions: Lymphocyte
Procedure: Blood was warmed to 37°C prior to use.
Then, 5 µL of PBS or cytokine was added to each well (5 µL/well; final, 10 U/mL EPO, 100 ng/mL G‐CSF, 10 ng/mL GM‐CSF, 5000 U/mL IFNα, 100 ng/mL IFNγ, 50 ng/mL IL‐2, 50 ng/mL IL‐3, 5 ng/mL IL‐4, 50 ng/mL IL‐6, 30 ng/mL IL‐7, 30 ng/mL IL‐10, 30 ng/mL IL‐12, 30 ng/mL IL‐13, 30 ng/mL IL‐15, 50 ng/mL IL‐21, 25 ng/mL IL‐23, 1000 ng/mL IL‐27) and incubated for 15 minutes. […]
The lymphocyte population was gated for pSTAT histogram analysis for IFNα‐, IL‐2‐, IL‐3‐, IL‐4‐, IL‐7‐, IL‐10‐, IL‐12‐, IL‐15‐, IL‐21‐, IL‐23‐, and IL‐27‐treated samples; granulocyte population for G‐CSF‐treated samples; CD14^+ cells for GM‐CSF‐, IFNγ‐, and TPO‐treated samples; CD3^+ cells and CD14^+ cells for IL‐6‐treated samples; CD14^+ cells and CD19^+ cells for IL‐13‐treated samples; all events (entire populations) for EPO‐treated cells. Background fluorescence was defined using unstimulated cells and a gate was placed at the foot of the peak to include ~0.5% gated population.
Histogram statistical analysis was performed using FACSDiva version 8.0.1 (BD Biosciences). Relative fluorescence unit (RFU), which measures the level of pSTAT, was calculated by multiplying the percent positive population and its mean fluorescence. […]
Inhibition curves and IC50 values were determined using Prism software (Version 7, GraphPad).

CC[C@@H]1CN(C(=O)NCC(F)(F)F)C[C@@H]1c1cnc2cnc3[nH]ccc3n12 [Upadacitinib]
IC50 (read-out: IC50, IL-23, pSTAT3): 242 nM | IC50 (read-out: IC50,u, IL-23, pSTAT3): 117 nM
